The values below come from US20200361871A1 (Enterprise Therapeutics Ltd., priority 2018, published 2020).

The experiment concerns the target human TMEM16A (TMEM16Aabc variant) (Homo sapiens, UniProt Q5XXA6, DEL476-501, form not given). The experiment in a line: Automated whole-cell patch clamp (Qpatch) TMEM16A potentiator assay in FRT cells stably expressing human TMEM16A. In kind it is cell-based. As to conditions: for % Potentiation @ 3.33 μM Avg: 3.33 μM solution of test compound, percentage increase of baseline TMEM16A current; for EC50: calculated EC50, Qpatch TMEM16A current at +70 mV. An excerpt: FIG. 1 is an example trace from a whole-cell patch clamp (Qpatch) TMEM16A potentiator assay as used in Biological Example 95 and illustrates the methodology used in the assay. In FIG. 1: S is Saline; V is Vehicle; #1 is Test Compound concentration #1; #2 is Test Compound concentration 2; #3 is Test Compound concentration 3; #4 is Test Compound concentration 4; #5 is Test Compound concentration #5; and R is Reference. The arrow in column V represents the baseline current, IBL. The arrows in each of the columns #1, #2, #3, #4, #5 and R represent I#[1], I#[2], I#[3], I#[4], I#[5] and I[Ref], which are the peak currents during the incubation periods for test compounds concentrations #1 to #5 and the Reference.
Fisher rat thyroid (FRT) cells stably expressing human TMEM16A (TMEM16Aabc variant; Dr Luis Galietta, Insituto Giannina, Italy) were cultured in T-75 flasks in Hams F-12 media with Coon's modification (Sigma) supplemented with 10% (v/v) foetal bovine serum, penicillin-streptomycin (10,000 U/mL/10000 μg/mL), G-418 (750 μg/mL), L-glutamine (2 mM) and sodium bicarbonate solution (7.5% v/v). At ˜90% confluence cells were harvested for experiments by detachment with a 2:1 (v/v) mixture of Detachin (BMS Biotechnology) and 0.25% (w/v) trypsin-EDTA. Cells were diluted to a density of 3.5-4.5×10^6 cells/mL with media consisting of CHO-S-SFM II (Sigma), 25 mM HEPES (Sigma) and Soy bean trypsin inhibitor (Sigma).
FRT-TMEM16A cells were whole-cell patch clamped using an automated planar patch clamp system (Qpatch, Sophion). Briefly, once high resistance (GOhm) seals were established between the cells and the planar recording array the patch was ruptured using suction pulses to establish the whole-cell recording configuration of the patch clamp technique. The assay employed the following solutions (all reagents Sigma): Intracellular solution (mM): N-methyl-D-glucamine 130, CaCl2 18.2, MgCl2 1, HEPES 10, EGTA 10, BAPTA 20, Mg-ATP 2, pH 7.25, 325 mOsm with sucrose.
Extracellular solution (mM): N-methyl-D-glucamine 130, CaCl2 2, MgCl2 1, HEPES 10, pH 7.3, 320 mOsm with sucrose.
The intracellular solution buffers intracellular calcium at levels required to give ˜20% activation of the maximal TMEM16A mediated current (EC20 for calcium ions). Cells were voltage clamped at a holding potential of −70 mV and a combined voltage step (to +70 mV)/ramp (−90 my to +90 mV) was applied at 0.05 Hz. After a period of current stabilisation test compounds, solubilised in 100% (v/v) DMSO and subsequently diluted into extracellular solution, were applied to generate a cumulative concentration response curve. Each concentration of test compound was incubated for 5 minutes before addition of the next concentration. After the final concentration was tested a supramaximal concentration of either a known active positive modulator or the TMEM16A inhibitor, CaCCinhA01 (Del La Fuente et al, 2008) was added to define the upper and lower limits of the assay.
Compound activity was quantified by measuring the increase in current upon compound addition and expressing this as a percentage increase of baseline TMEM16A current level. Percentage increases in current were determined for each concentration and the data plotted as a function of concentration using either the Qpatch software or Graphpad Prism v6.05 providing the concentration which gave 50% of its maximal effect (EC50) and maximum efficacy (percentage of baseline increase).
In FIG. 1, IBL equals baseline current, I[#1] equals the peak current during test compound concentration 1 incubation period and so on.
Peak TMEM16A current at +70 mV was plotted as a function of time over the assay period. Baseline current (IBL) was measured after a period of stabilisation. The increase in current for each compound addition was determined by taking the peak current during the incubation period and subtracting the current from the previous recording period and then expressing this as a percentage of the baseline current. […]

Chain of human TMEM16A (TMEM16Aabc variant) (Q5XXA6 with tags, fused parts or gaps DEL476-501): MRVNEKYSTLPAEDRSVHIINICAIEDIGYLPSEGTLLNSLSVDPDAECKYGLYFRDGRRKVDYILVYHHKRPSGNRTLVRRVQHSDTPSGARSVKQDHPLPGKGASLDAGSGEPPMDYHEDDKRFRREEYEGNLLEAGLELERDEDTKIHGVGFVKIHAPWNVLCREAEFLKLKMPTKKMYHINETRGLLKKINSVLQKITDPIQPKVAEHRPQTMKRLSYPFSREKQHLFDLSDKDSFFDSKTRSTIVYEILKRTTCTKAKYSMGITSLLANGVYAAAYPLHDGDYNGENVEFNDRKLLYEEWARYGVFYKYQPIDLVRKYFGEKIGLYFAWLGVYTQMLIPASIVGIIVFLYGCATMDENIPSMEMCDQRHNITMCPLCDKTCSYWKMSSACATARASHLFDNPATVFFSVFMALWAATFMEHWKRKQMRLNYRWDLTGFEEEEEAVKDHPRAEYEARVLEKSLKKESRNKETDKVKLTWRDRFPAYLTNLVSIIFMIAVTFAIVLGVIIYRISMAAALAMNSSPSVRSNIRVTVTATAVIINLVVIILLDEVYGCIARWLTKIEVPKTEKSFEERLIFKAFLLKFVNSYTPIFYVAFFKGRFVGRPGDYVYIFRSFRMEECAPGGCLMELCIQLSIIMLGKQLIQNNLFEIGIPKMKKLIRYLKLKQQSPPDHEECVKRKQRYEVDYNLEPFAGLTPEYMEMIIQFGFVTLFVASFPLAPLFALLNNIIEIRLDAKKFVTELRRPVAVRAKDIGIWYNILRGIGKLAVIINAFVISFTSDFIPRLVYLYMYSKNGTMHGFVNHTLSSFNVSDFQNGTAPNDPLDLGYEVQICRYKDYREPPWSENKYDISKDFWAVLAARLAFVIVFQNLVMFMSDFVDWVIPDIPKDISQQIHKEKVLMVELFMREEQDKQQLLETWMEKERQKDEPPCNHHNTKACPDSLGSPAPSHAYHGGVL

In the case of `CC(C)(C)NC(=O)c1cc(NC(=O)Cc2cc(Cl)cc(Cl)c2)ccn1` [Example 5.19, N-tert-Butyl-4-[[2-(3,5-dichlorophenyl)acetyl]amino]pyridine-2-carboxamide], the “% Potentiation @ 3.33 μM Avg” value is reported as 75% and the EC50 (usually the concentration that produces a half-maximal response) is 1850 nM.

For `CC(C)(CCNC(=O)OC(C)(C)C)NC(=O)c1cc(NC(=O)Cc2cc(Cl)ccc2O)ccn1` [Example 1.8, tert-Butyl N-[3-[[4-[[2-(5-chloro-2-hydroxy-phenyl)acetyl]amino]pyridine-2-carbonyl]amino]-3-methyl-butyl]carbamate], the “% Potentiation @ 3.33 μM Avg” value is 300% and the EC50 is 410 nM. The like results for `CC(C)(C)NC(=O)c1cc(NC(=O)Cc2cc(Cl)ccc2O)ccc1O` [Example 11, N-tert-Butyl-5-[[2-(5-chloro-2-hydroxy-phenyl)acetyl]amino]-2-hydroxy-benzamide] were, in that order, 76% and 900 nM. `O=C(Cc1cc(Cl)ccc1O)Nc1ccnc(C(=O)Nc2ncc[nH]2)c1` [Example 32.9, 4-[[2-(5-Chloro-2-hydroxy-phenyl)acetyl]amino]-N-(1H-imidazol-2-yl)pyridine-2-carboxamide]: the “% Potentiation @ 3.33 μM Avg” value came to 31%. For `CC(C)(C#N)NC(=O)c1cc(NC(=O)CC2CCCCC2)ccn1` [Example 83.1, N-(1-Cyano-1-methyl-ethyl)-4-[(2-cyclohexylacetyl)amino]pyridine-2-carboxamide], the “% Potentiation @ 3.33 μM Avg” value was 159%. As for `CC(C)(C)NC(=O)c1cc(NC(=O)NCc2ccccc2Cl)ccn1` [Example 64.5, N-tert-Butyl-4-[(2-chlorophenyl)methylcarbamoylamino]pyridine-2-carboxamide], the “% Potentiation @ 3.33 μM Avg” value is given as 143% and the 50% effective concentration (EC50) was 450 nM. In the case of `C#CC(C)(C)NC(=O)c1cc(NC(=O)Cc2cccc(C(F)(F)F)c2)ccn1` [Example 5.37, N-(1,1-Dimethylprop-2-ynyl)-4-[[2-[3-(trifluoromethyl)phenyl]acetyl]amino]pyridine-2-carboxamide], the “% Potentiation @ 3.33 μM Avg” value was 117% and the EC50 is 150 nM. As for `N#CC1(NC(=O)c2cc(NC(=O)Cc3cc(Cl)ccc3O)ccn2)COC1` [Example 47.3, 4-[[2-(5-Chloro-2-hydroxy-phenyl)acetyl]amino]-N-(3-cyanooxetan-3-yl)pyridine-2-carboxamide], the “% Potentiation @ 3.33 μM Avg” value is given as 237% and the 50% effective concentration (EC50) was 350 nM. As for `CC(C)(C)NC(=O)c1cc(NC(=O)Cc2ccc(C(C)(C)C)c(O)c2)ccn1` [Example 89, N-tert-Butyl-4-[[2-(4-tert-butyl-3-hydroxy-phenyl)acetyl]amino]pyridine-2-carboxamide], the “% Potentiation @ 3.33 μM Avg” value is 366% and the EC50 is 90 nM. Turning to `CC(C)(C)NC(=O)c1cc(NC(=O)Cc2ccc(F)cc2)ccn1` [Example 5.13, N-tert-Butyl-4-[[2-(4-fluorophenyl)acetyl]amino]pyridine-2-carboxamide], the “% Potentiation @ 3.33 μM Avg” value is 94% and the 50% effective concentration (EC50) is 1140 nM. For `C#CC(C)(C)NC(=O)c1cc(NC(=O)Cc2ccc(C(F)(F)F)cc2)ccn1` [Example 5.35, N-(1,1-Dimethylprop-2-ynyl)-4-[[2-[4-(trifluoromethyl)phenyl]acetyl]amino]pyridine-2-carboxamide], the “% Potentiation @ 3.33 μM Avg” value is recorded as 106% and the EC50 was 180 nM. As for `CC(C)(C)NC(=O)c1cc(NC(=O)Cc2ccccc2Br)ccn1` [Example 23.13, 4-[[2-(2-bromophenyl)acetyl]amino]-N-tert-butyl-pyridine-2-carboxamide], the “% Potentiation @ 3.33 μM Avg” value stood at 169% and the EC50 is 570 nM. Regarding `CC(C)(C)NC(=O)c1cc(NC(=O)C2CCCc3ccccc32)ccn1` (centres unmarked) [Example 5.27, N-tert-Butyl-4-(tetralin-1-carbonylamino) pyridine-2-carboxamide], the “% Potentiation @ 3.33 μM Avg” value stood at 84%.

On to `CC(C)(C)NC(=O)c1cc(NC(=O)Cc2cc(F)cc(F)c2)ccn1` [Example 23.7, N-tert-Butyl-4-[[2-(3,5-difluorophenyl)acetyl]amino]pyridine-2-carboxamide], for which the “% Potentiation @ 3.33 μM Avg” value is given as 98%. As to `COC(=O)C1(NC(=O)c2cc(NC(=O)Cc3cc(Cl)ccc3O)ccn2)CCOCC1` [Example 47.2, Methyl 4-[[4-[[2-(5-chloro-2-hydroxy-phenyl)acetyl]amino]pyridine-2-carbonyl]amino]tetrahydropyran-4-carboxylate], the “% Potentiation @ 3.33 μM Avg” value worked out at 212% and the 50% effective concentration (EC50) is 230 nM. For `Cc1ccc(CC(=O)Nc2ccnc(C(=O)NC(C)(C)C)c2)cc1` [Example 5.11, N-tert-Butyl-4-[[2-(p-tolyl)acetyl]amino]pyridine-2-carboxamide] the same measures were 89% and 170 nM.

In the case of `CC(C)(C)NC(=O)c1cc(NC(=O)Nc2ccccc2O)ccn1` [Example 65, N-tert-Butyl-4-[(2-hydroxyphenyl)carbamoylamino]pyridine-2-carboxamide], the “% Potentiation @ 3.33 μM Avg” value amounted to 55%. Turning to `CC1(NC(=O)c2cccc(NC(=O)Cc3cc(F)ccc3O)c2)CCCCC1` [Example 35.20, 3-[[2-(5-Fluoro-2-hydroxy-phenyl)acetyl]amino]-N-(1-methylcyclohexyl)benzamide], the “% Potentiation @ 3.33 μM Avg” value is recorded as 240% and the EC50 was 420 nM. For the compound `O=C(Cc1cc(Cl)ccc1O)Nc1ccnc(C(=O)NC2CCCC(O)C2)c1` (centres unmarked) [Example 35.6, 4-[[2-(5-Chloro-2-hydroxy-phenyl)acetyl]amino]-N-(3-hydroxycyclohexyl)pyridine-2-carboxamide], the “% Potentiation @ 3.33 μM Avg” value amounted to 53%.

Turning to `CC(C)(C)c1ccc(CC(=O)Nc2ccnc(C(=O)NC3(C#N)CCOCC3)c2)cc1O` [Example 93.3, 4-[[2-(4-tert-Butyl-3-hydroxy-phenyl)acetyl]amino]-N-(4-cyanotetrahydropyran-4-yl)pyridine-2-carboxamide], the “% Potentiation @ 3.33 μM Avg” value was 130% and the EC50 is 60 nM.

Take `CC(CO)(CO)NC(=O)c1cc(NC(=O)Cc2cc(Cl)ccc2O)ccn1` [Example 35.4, 4-[[2-(5-Chloro-2-hydroxy-phenyl)acetyl]amino]-N-[2-hydroxy-1-(hydroxymethyl)-1-methyl-ethyl]pyridine-2-carboxamide]: the “% Potentiation @ 3.33 μM Avg” value amounted to 138%. Turning to `C#CC1(NC(=O)c2cc(NC(=O)Cc3cc(Cl)ccc3O)ccn2)CCCCC1` [Example 35.24, 4-[[2-(5-Chloro-2-hydroxy-phenyl)acetyl]amino]-N-(1-ethynylcyclohexyl)pyridine-2-carboxamide], the “% Potentiation @ 3.33 μM Avg” value worked out at 120% and the EC50 is 10 nM. In the case of `CC(C)(C)NC(=O)c1cc(F)cc(NC(=O)Cc2cc(Cl)ccc2O)c1` [Example 18, N-tert-Butyl-3-[[2-(5-chloro-2-hydroxy-phenyl)acetyl]amino]-5-fluoro-benzamide], the “% Potentiation @ 3.33 μM Avg” value amounted to 405% and the EC50 was 450 nM. `C#CC(C)(C)NC(=O)c1cc(NC(=O)Cc2cccc3cc[nH]c23)ccn1` [Example 79.3, N-(1,1-Dimethylprop-2-ynyl)-4-[[2-(1H-indol-7-yl)acetyl]amino]pyridine-2-carboxamide]: the “% Potentiation @ 3.33 μM Avg” value is given as 64% and the EC50 is 240 nM.
